Reference: US20090226398A1, “ANTI-VIRAL COMPOUNDS, COMPOSITIONS, AND METHODS OF USE” (Genelabs Technologies, Inc., priority 2008, published 2009)

System: HCV replication
Test: Replicon Assay (Huh-lucubineo-ET cells, luciferase readout)
Type: cell-based
Conditions: Hepatitis C virus; ET (Huh-lucubineo-ET) HCV replicon cell line; luciferase activity 48-72 hours after compound addition; 6 dilutions
How it was run: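 Huh-lucubineo-ET cells stably carrying a firefly luciferase-ubiquitin-neo/NS3-5B ET replicon (adaptive mutations E1202G, T1280I, K1846T) were plated 24 h before compound, then treated at 5 or 50 μM or six 3-fold dilutions. Luciferase read 48-72 h later; % inhibition vs no-compound control, EC50/TC50 from Hill-equation fit.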

| SMILES | EC50 [µM] |
| --- | --- |
| Fc1cccc(-c2nc3cnn(Cc4ccc(-c5ccc(Br)c(C(F)(F)F)c5)cc4)cc-3n2)c1F [Compound 344, 5-(4′-Bromo-3′-trifluoromethyl-biphenyl-4-ylmethyl)-2-(2,3-difluoro-phenyl)-5H-imidazo[4,5-d]pyridazine] | 0.32 |
| [O-][n+]1cc(Cn2cc3nc(-c4cccc(F)c4F)nc-3cn2)ccc1-c1ccc(C(F)(F)F)cc1C(F)(F)F [Compound 345, 5-[6-(2,4-Bis-trifluoromethyl-phenyl)-1-oxy-pyridin-3-ylmethyl]-2-(2,3-difluoro-phenyl)-5H-imidazo[4,5-d]pyridazine] | 0.08 |
| COc1ccc(-c2ccc(Cn3cc4nc(-c5cccc(F)c5F)nc-4cn3)cc2C(=O)O)c(C(F)(F)F)c1 [Compound 346, 4-[2-(2,3-Difluoro-phenyl)-imidazo[4,5-d]pyridazin-5-ylmethyl]-4′-methoxy-2′-trifluoromethyl-biphenyl-2-carboxylic acid] | ≥ 50 |
| CCCCc1ccc(-c2ccc(Cn3cc4nc(-c5cccc(F)c5F)nc-4cn3)cn2)cc1C(F)(F)F [Compound 347, 5-[6-(4-Butyl-3-trifluoromethyl-phenyl)-pyridin-3-ylmethyl]-2-(2,3-difluoro-phenyl)-5H-imidazo[4,5-d]pyridazine] | 2.59 |
| COc1ccc(-c2ccc(Cn3cc4nc(-c5cccc(F)c5F)nc-4cn3)c(OCCCO)c2)c(C(F)(F)F)c1 [Compound 348, 3-{4-[2-(2,3-Difluoro-phenyl)-imidazo[4,5-d]pyridazin-5-ylmethyl]-4′-methoxy-2′-trifluoromethyl-biphenyl-3-yloxy}-propan-1-ol] | 0.279 |
| COc1ccc(-c2ccc(Cn3cc4nc(-c5cccc(F)c5F)nc-4cn3)c(OCCCN3CCOCC3)c2)c(C(F)(F)F)c1 [Compound 349, 2-(2,3-Difluoro-phenyl)-5-[4′-methoxy-3-(3-morpholin-4-yl-propoxy)-2′-trifluoromethyl-biphenyl-4-ylmethyl]-5H-imidazo[4,5-d]pyridazine] | 6.26 |
| Oc1ccc(-c2ccc(Cn3cc4nc(-c5cccc(F)c5F)nc-4cn3)nn2)c(C(F)(F)F)c1 [Compound 350, 4-{6-[2-(2,3-Difluoro-phenyl)-imidazo[4,5-d]pyridazin-5-ylmethyl]-pyridazin-3-yl}-3-trifluoromethyl-phenol] | ≥ 50 |
| FCCCOc1ccc(-c2ccc(Cn3cc4nc(-c5cccc(F)c5F)nc-4cn3)nn2)c(C(F)(F)F)c1 [Compound 351, 2-(2,3-Difluoro-phenyl)-5-{6-[4-(3-fluoro-propoxy)-2-trifluoromethyl-phenyl]-pyridazin-3-ylmethyl}-5H-imidazo[4,5-d]pyridazine] | 0.025 |
| FCCOc1ccc(-c2ccc(Cn3cc4nc(-c5cccc(F)c5F)nc-4cn3)nn2)c(C(F)(F)F)c1 [Compound 352, 2-(2,3-Difluoro-phenyl)-5-{6-[4-(2-fluoro-ethoxy)-2-trifluoromethyl-phenyl]-pyridazin-3-ylmethyl}-5H-imidazo[4,5-d]pyridazine] | 0.0228 |
| O=S(=O)(Oc1ccc(-c2ccc(Cn3cc4nc(-c5cccc(F)c5F)nc-4cn3)nn2)c(C(F)(F)F)c1)C(F)(F)F [Compound 353, Trifluoro-methanesulfonic acid 4-{6-[2-(2,3-difluoro-phenyl)-imidazo[4,5-d]pyridazin-5-ylmethyl]-pyridazin-3-yl}-3-trifluoromethyl-phenyl ester] | 1.19 |
| Fc1cccc(-c2nc3cnn(Cc4ccc(-c5ccc(-c6cccs6)cc5C(F)(F)F)nn4)cc-3n2)c1F [Compound 354, 2-(2,3-Difluoro-phenyl)-5-[6-(4-thiophen-2-yl-2-trifluoromethyl-phenyl)-pyridazin-3-ylmethyl]-5H-imidazo[4,5-d]pyridazine] | 0.225 |
| Fc1cccc(-c2nc3cnn(Cc4ccc(N5CCOCC5)nn4)cc-3n2)c1F [Compound 355, 2-(2,3-Difluoro-phenyl)-5-(6-morpholin-4-yl-pyridazin-3-ylmethyl)-5H-imidazo[4,5-d]pyridazine] | ≥ 50 |
| COc1ccc(-c2ccc(Cn3cc4nc(-c5cccc(F)c5F)nc-4cn3)cc2N)c(C(F)(F)F)c1 [Compound 356, 4-[2-(2,3-Difluoro-phenyl)-imidazo[4,5-d]pyridazin-5-ylmethyl]-4′-methoxy-2′-trifluoromethyl-biphenyl-2-ylamine] | 0.1 |
| CCCOc1ccc(-c2ccc(Cn3cc4nc(-c5cccc(F)c5F)nc-4cn3)cc2N)cc1 [Compound 357, 4-[2-(2,3-Difluoro-phenyl)-imidazo[4,5-d]pyridazin-5-ylmethyl]-4′-propoxy-biphenyl-2-ylamine] | ≥ 50 |
| COc1ccc(-c2ccc(Cn3cc4nc(-c5cccc(F)c5F)nc-4cn3)nc2N)c(C(F)(F)F)c1 [Compound 358, 6-[2-(2,3-Difluoro-phenyl)-imidazo[4,5-d]pyridazin-5-ylmethyl]-3-(4-methoxy-2-trifluoromethyl-phenyl)-pyridin-2-ylamine] | 0.291 |
| COc1ccc(-c2ccc(Cn3cc4nc(-c5cccc(F)c5F)nc-4cn3)nc2O)c(C(F)(F)F)c1 [Compound 359, 6-[2-(2,3-Difluoro-phenyl)-imidazo[4,5-d]pyridazin-5-ylmethyl]-3-(4-methoxy-2-trifluoromethyl-phenyl)-pyridin-2-ol] | 2.23 |
| Nc1nc(-c2ccc(C(F)(F)F)cc2C(F)(F)F)ccc1Cn1cc2nc(-c3cccc(F)c3F)nc-2cn1 [Compound 360, 6-(2,4-Bis-trifluoromethyl-phenyl)-3-[2-(2,3-difluoro-phenyl)-imidazo[4,5-d]pyridazin-5-ylmethyl]-pyridin-2-ylamine] | 0.011 |
| Oc1nc(-c2ccc(C(F)(F)F)cc2C(F)(F)F)ccc1Cn1cc2nc(-c3cccc(F)c3F)nc-2cn1 [Compound 361, 6-(2,4-Bis-trifluoromethyl-phenyl)-3-[2-(2,3-difluoro-phenyl)-imidazo[4,5-d]pyridazin-5-ylmethyl]-pyridin-2-ol] | 13.7 |
| CCCOc1ccc(-c2ncc(Cn3cc4nc(-c5ccccc5F)nc-4cn3)cn2)c(C(F)(F)F)c1 [Compound 362, 2-(2-Fluoro-phenyl)-5-[2-(4-propoxy-2-trifluoromethyl-phenyl)-pyrimidin-5-ylmethyl]-5H-imidazo[4,5-d]pyridazine] | 0.019 |
| CCCOc1ccc(-c2ncc(Cn3cc4nc(-c5cccc(F)c5F)nc-4cn3)cn2)c(C(F)(F)F)c1 [Compound 363, 2-(2,3-Difluoro-phenyl)-5-[2-(4-propoxy-2-trifluoromethyl-phenyl)-pyrimidin-5-ylmethyl]-5H-imidazo[4,5-d]pyridazine] | 0.005 |
| Nc1ccc(-c2ccc(Cn3cc4nc(-c5cccc(F)c5F)nc-4cn3)cn2)c(C(F)(F)F)c1 [Compound 364, 4-{5-[2-(2,3-Difluoro-phenyl)-imidazo[4,5-d]pyridazin-5-ylmethyl]-pyridin-2-yl}-3-trifluoromethyl-phenylamine] | ≥ 50 |
| Cc1ccc(-c2ccc(Cn3cc4nc(-c5cccc(F)c5F)nc-4cn3)cn2)c(C(F)(F)F)c1 [Compound 376, 2-(2,3-Difluoro-phenyl)-5-[6-(4-methyl-2-trifluoromethyl-phenyl)-pyridin-3-ylmethyl]-5H-imidazo[4,5-d]pyridazine] | 0.131 |
